In patent US12116356B2, “N-heterocyclic five-membered ring-containing capsid protein assembly inhibitor, pharmaceutical composition thereof, and use thereof” (CHIA TAI TIANQING PHARMACEUTICAL GROUP CO., LTD., priority 2018, dated 2024):

Assays:
[1] = In vivo pharmacokinetics (PK) study in rats; set-up: species or system SD rats
Description: SD rats, weighing 180˜220 g, were randomly divided into groups of three […] each after 3 to 5 days' acclimatization, and a series of the compounds were administered intragastrically to each group at a dose of 20 mg/kg.
The test animals (SD rats) were fasted for 12 hours before administration and fed 4 hours after the administration. They were free to access water before and after the experiment.
After the administration, about 0.2 mL of blood from the orbits was collected at 0 min, 15 min, 30 min, 1 h, 2 h, 4 h, 6 h, 8 h, 10 h, 24 h, 30 h, and 48 h. Within 30 minutes after anticoagulation with EDTA-K2, the plasma was separated by centrifugation at 4° C. and 4000 rpm for 10 minutes. Immediately after collecting all plasma, it was stored at −20° C. for testing.
50 μL of the plasma sample to be tested and standard curve sample were pipetted, and then thereto was added 500 μL of an acetonitrile solution containing an internal standard (diazepam 20 mg/mL). The resulting mixture was oscillated and mixed uniformly for 5 min, and then centrifugated at 12000 rpm for 10 min. 75 μL supernatant was pipetted, and 75 μL ultrapure water was added thereto for dilution, and mixed evenly. 1 μL of the resulting solution was pipetted for LC/MS/MS determination.

[2] = In vivo pharmacokinetic (PK) study in Beagle dog; set-up: species or system Beagle dogs
Description: Beagle dogs, weighing 9 to 11 kg, were randomly divided into two groups of 3 dogs each, compound 12 was given by intragastric administration to each group at a dose of 5 mg/kg.
The test animals (Beagle dogs) were fasted for 12 hours before the administration, and fed 4 hours after the administration. They were free to access water before and after the experiment.
After the intragastric administration, about 0.5 mL of whole blood was collected from the veins of the left forelimb in an EDTA-K2 anticoagulated vacuum blood collection tube at 0 min, 15 min, 30 min, 1 h, 2 h, 4 h, 6 h, 8 h, 10 h, 24 h, 48 h, and 72 h. Within 30 minutes after collection, the plasma was separated by centrifugation at 4° C. and 4000 rpm for 10 minutes. Immediately after collecting all plasma, it was stored at −20° C. for testing.
50 μL of the plasma sample to be tested and standard curve sample were pipetted, and then thereto was added 500 μL of an acetonitrile solution containing an internal standard (diazepam 20 mg/mL). The resulting mixture was oscillated and mixed uniformly for 5 min, and then centrifugated at 12000 rpm for 10 min, 75 μL of the supernatant was pipetted, and 75 μL of ultrapure water was added for dilution and mixed evenly. 1 μL of the resulting solution was pipetted for LC/MS/MS determination.

[3] = In vivo pharmacokinetics (PK) study in mice; settings: ICR mice, po 30 mg/kg
Description: ICR mice, weighing 18-20 g, were randomly divided into groups of three mice each after 3 to 5 days' acclimatization, and a series of the compounds were administered intragastrically to each group at a dose of 30 mg/kg. The test animals (ICR mice) were fasted for 12 hours before the administration and fed 4 hours after the administration. They were free to access water before and after the experiment. After the intragastric administration, about 0.1 mL of blood was collected from the orbits. Within 30 minutes after anticoagulation with EDTA-K2, the plasma was separated by centrifugation at 4° C. and 4000 rpm for 10 minutes. Immediately after collecting all plasma, it was stored at −20° C. for testing. 20 μL of the plasma sample to be tested and standard curve sample were pipetted, and then thereto was added 200 μL of an acetonitrile solution containing an internal standard (diazepam 20 mg/mL). The resulting mixture was oscillated and mixed uniformly for 5 min, and then centrifugated at 12000 rpm for 10 min. 75 μL supernatant was pipetted, and 75 μL ultrapure water was added thereto for dilution, and mixed evenly. 1 μL of the resulting solution was pipetted for LC/MS/MS determination.

[4] = rat, plasma, SD rats, PO 20 mg/kg
[5] = plasma, Beagle dogs, PO 5 mg/kg

SMILES	F ([1]; SD rats, PO 20 mg/kg vs IV 5 mg/kg) [%]	half-life ([1]; SD, rat, in vivo, po, 20 mg/kg) [h]	AUC(0-inf) [1, 4] [ng·h/mL]	Cmax [1, 4] [ng/mL]	AUC(0-t) ([1]; rat, plasma, SD rats, PO 20 mg/kg, read-out: AUC(0-48 h)) [ng·h/mL]	half-life ([2]; Beagle, in vivo, po, 5 mg/kg) [h]	AUC(0-inf) [2, 5] [ng·h/mL]	Cmax [2, 5] [ng/mL]	Tmax [2, 5] [h]	AUC(0-t) ([2]; plasma, Beagle dogs, PO 5 mg/kg, read-out: AUC(0-72 h)) [ng·h/mL]	MRT last ([2]; plasma, Beagle dogs, PO 5 mg/kg, read-out: MRT(0-t)) [h]	Liver AUC(0-8 h) ([3]; 0.25 h, 3 h, 8 h) [ng/g]	Plasma AUC(0-8 h) ([3]; blood at 0.25 h, 3 h, 8 h) [ng/mL]	Kp ([3]; mouse, liver/blood, AUC(0-8 h), read-out: Liver to blood ratio)
Cc1c(C(=O)Nc2ccc(F)c(C#N)c2)c(C)n(C)c1C(=O)C(=O)N[C@@H](C)C(F)(F)F [Example 12]	57	3.65	62300	5020	62000	105	162000	1280	1.67	61900	32.9	–	–	–
Cc1c(C(=O)Nc2ccc(F)c(C#N)c2)c(C)n(C)c1C(=O)C(=O)NC1(C(F)(F)F)COC1 [Example 25, N-(3-cyano-4-fluorophenyl)-1,2,4-trimethyl-5-(2-oxo-2-((3-(trifluoromethyl)oxetan-3-yl)amino)acetyl)-1H-pyrrole-3-carboxamide]	–	–	–	–	–	–	–	–	–	–	–	315435	37732	8.36
